Measured values as given in patent US20240383910A1, “SMALL MOLECULE BTK DEGRADERS AND METHODS OF USE THEREOF” (Baylor College of Medicine, priority 2023, published 2024).

Assays:
His-BTK = target: T1, His-BTK (Homo sapiens, UniProt Q06187); test: TR-FRET competition binding assay with BTK-BODIPY tracer; conditions: TRFRET assay, up to 100 μM
T1 construct: purchased SignalChem B10-10H-10
Protocol: Panels a-b. […] Panel c. […] Panel d. […] Panel e. […] Panel f.
Time-resolved fluorescence resonance energy transfer (TR-FRET) assay was carried out to evaluate the binding of indicated compounds and BTK by competition with a BODIPY-FL labeled BTK tracer (See FIG. 1, BTK TR-FRET tracer). The assay was performed in 20 μL assay buffer (50 mM Tris, pH7.5, 0.1% Triton X-100, 0.01% BSA, and 1 mM DTT) with 0.3 nM Tb-anti-His (Cisbio, Cat. No. 61HI2TLA), 2 nM His-BTK (SignalChem, Cat. No. […] Unless specified otherwise, all assays were performed in triplicates. The assay mixtures were incubated at room temperature in the dark for 120 min, unless specified otherwise, and the signals were collected using a BioTek Synergy H1 microplate reader to measure the fluorescence emission ratio ([…]) of each well, using a 340-nm excitation filter, a 100-μs delay, and a 200-μs integration time. Raw data from the plate reader were used directly for analysis. The curve-fitting software GraphPad Prism 9 was used to generate graphs and curves and to determine IC50 values.
To measure the binding affinities between PROTACs and BTK, a time-resolved fluorescence resonance energy transfer (TR-FRET) competition binding assay was developed. A BTK tracer was synthesized by conjugating an ibrutinib-based reversible noncovalent binder with the BODIPY-FL dye (FIG. 1). […] In the presence of the BTK tracer, competition assays were performed to measure the binding affinities between BTK and its inhibitors and PROTACs. […] The very weak BTK binding affinities for PS-RC-1, PS-RC-2, PS-RC-3 and PS-RC-4 explain their minimal BTK degradation effects in cells and further support that the observed growth inhibitory effect of PS-RC-1 in Mino cells is unrelated to the BTK pathway.

IKZF3 = target: T2, IKZF3 (Homo sapiens, UniProt Q96SW2+Q9UKT9); test: TMT-based quantitative proteomics in Mino cells, IKZF3; assay type: cell-based; conditions: 200 nM, 4 h
T2 construct: host or cells: Mino
T2 sequence (Q9UKT9 whole entry): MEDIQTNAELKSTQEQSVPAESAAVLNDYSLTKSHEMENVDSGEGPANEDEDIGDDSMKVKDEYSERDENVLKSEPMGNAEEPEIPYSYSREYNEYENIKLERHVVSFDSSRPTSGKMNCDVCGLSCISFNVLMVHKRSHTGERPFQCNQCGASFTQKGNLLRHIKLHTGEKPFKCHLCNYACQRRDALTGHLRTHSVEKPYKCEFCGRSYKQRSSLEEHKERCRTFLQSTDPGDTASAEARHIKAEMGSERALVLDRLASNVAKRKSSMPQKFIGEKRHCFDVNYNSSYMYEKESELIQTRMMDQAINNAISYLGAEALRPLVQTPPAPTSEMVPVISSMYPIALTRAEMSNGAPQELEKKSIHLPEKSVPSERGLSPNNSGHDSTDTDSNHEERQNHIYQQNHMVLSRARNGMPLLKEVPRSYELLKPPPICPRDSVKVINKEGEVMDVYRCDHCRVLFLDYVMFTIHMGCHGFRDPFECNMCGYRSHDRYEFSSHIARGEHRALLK
T2 sequence (Q96SW2 whole entry): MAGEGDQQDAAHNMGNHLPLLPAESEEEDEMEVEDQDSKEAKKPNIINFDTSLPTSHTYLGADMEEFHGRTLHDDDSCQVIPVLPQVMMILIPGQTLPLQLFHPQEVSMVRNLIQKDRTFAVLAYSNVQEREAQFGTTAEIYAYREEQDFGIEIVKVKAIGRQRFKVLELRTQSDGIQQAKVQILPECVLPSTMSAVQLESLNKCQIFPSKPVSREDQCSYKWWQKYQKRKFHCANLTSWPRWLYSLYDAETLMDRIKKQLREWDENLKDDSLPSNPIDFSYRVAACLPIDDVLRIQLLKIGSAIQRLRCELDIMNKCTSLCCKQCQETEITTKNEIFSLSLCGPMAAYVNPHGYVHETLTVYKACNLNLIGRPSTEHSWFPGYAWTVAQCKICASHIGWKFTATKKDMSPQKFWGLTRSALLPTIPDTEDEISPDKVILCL
T2 sequence (Q16531 whole entry partner): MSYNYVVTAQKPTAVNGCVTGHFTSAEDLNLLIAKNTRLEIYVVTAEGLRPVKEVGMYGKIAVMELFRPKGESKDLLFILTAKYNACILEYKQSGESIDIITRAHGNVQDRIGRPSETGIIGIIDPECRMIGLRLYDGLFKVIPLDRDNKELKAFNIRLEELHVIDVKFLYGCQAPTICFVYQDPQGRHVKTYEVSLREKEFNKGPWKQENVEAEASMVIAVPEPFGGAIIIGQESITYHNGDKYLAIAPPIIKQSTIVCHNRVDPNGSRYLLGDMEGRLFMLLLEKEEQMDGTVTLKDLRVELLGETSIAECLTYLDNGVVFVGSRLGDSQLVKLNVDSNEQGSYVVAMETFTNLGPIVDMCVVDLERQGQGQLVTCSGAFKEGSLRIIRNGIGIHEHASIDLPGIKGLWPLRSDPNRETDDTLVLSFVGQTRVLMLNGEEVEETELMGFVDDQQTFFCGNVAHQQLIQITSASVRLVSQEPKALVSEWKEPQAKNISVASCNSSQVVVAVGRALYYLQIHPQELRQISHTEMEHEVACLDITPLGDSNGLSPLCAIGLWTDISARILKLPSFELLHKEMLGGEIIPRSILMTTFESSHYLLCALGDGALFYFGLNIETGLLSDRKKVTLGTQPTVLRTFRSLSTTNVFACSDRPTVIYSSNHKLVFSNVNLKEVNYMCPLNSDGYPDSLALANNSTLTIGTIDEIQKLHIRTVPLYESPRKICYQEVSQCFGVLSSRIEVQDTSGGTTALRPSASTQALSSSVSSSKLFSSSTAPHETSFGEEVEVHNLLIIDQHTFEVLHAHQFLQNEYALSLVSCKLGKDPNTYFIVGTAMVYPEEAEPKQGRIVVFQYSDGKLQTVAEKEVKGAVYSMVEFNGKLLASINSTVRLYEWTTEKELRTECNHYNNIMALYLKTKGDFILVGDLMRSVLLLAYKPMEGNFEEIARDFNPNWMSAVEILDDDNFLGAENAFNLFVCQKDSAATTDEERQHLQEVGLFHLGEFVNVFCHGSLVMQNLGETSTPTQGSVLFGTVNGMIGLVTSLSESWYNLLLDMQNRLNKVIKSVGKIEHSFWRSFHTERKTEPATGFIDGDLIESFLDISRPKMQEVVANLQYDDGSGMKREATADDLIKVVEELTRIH
Protocol: (§1) Panel a. […] Panel b. […] Panel c. […] Panel d-e. […] Panel g.
(§2) Two million of Mino cells were treated with DMSO or 200 nM of PS-2 for 4 hours in biological triplicates and cells were harvested by centrifugation (200×g, 4° C., 5 min). Lysis buffer (100 mM Triethylammonium bicarbonate (TEAB, Thermo Fisher Scientific, Cat. No. 90114), 2% SDS) was added to the cell pellets and homogenized with a microtip sonicator (Branson) to achieve a cell lysate with a protein concentration of ˜2 mg mL^−1. Protein concentration was determined using BCA assay (Pierce, Cat. No. 23225) and normalized to 1 mg mL^−1. One hundred μg of protein for each sample were reduced and alkylated with 10 mM Tris(2-carboxyethyl) phosphine hydrochloride (TCEP, Sigma, Cat. No. C4706) and 17 mM iodoacetamide (IAA, Sigma, Cat. No. 16125-5G), followed by digestion with trypsin (1:20, enzyme: protein, Thermo Fisher Scientific, Cat. No. 90058) for 16 h shaking at 37° C. […]
(§3) Next, tandem mass tagging (TMT)-based quantitative proteomic profiling was performed to evaluate the degradation specificity of PS-2. […] Quantitative proteomics employing TMT chemical labeling coupled with LC/MS/MS enabled the detection of >2,500 unique proteins without fractionation (FIG. 4f). […]

BTK [1] = target: T3, BTK (Mus musculus, UniProt P35991); test: Western blotting for BTK in A20 cells; assay type: cell-based; conditions: A20 cells, 40, 200 and 1000 nM, 24 h, Western blot
T3 construct: host or cells: A20
T3 sequence (P35991 whole entry): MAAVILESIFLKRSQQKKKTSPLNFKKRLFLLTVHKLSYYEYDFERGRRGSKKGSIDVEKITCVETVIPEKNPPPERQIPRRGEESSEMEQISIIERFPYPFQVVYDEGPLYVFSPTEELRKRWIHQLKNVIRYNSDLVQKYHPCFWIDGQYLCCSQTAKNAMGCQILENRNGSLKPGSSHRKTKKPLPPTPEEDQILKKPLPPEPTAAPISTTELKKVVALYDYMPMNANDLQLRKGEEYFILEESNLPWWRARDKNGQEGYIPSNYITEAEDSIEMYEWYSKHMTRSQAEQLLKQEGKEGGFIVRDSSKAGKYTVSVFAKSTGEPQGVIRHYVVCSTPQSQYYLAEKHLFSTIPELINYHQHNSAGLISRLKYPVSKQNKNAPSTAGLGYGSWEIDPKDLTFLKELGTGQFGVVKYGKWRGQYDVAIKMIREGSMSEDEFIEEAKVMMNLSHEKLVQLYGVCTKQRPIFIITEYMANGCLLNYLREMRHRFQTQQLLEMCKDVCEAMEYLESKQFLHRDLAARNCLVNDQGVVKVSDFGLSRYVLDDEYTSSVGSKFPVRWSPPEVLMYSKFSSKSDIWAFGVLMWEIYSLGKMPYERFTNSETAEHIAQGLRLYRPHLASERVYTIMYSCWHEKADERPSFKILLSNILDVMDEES
Protocol: (§4) CC-220 is a IKZF1/3 degrader developed by Celgene and used for comparison.
(§5) In contrast, PS-3, whose warhead is further reduced compared with PS-2, loses its ability to function as either a BTK degrader or a potent IKZF1/3 molecular glue. To confirm this observation, BTK degradation induced by PS-1, PS-2, and PS-3 was tested in both a human B lymphocyte cell line Ramos and mouse BALB/c B cell lymphoma line A20, with DD-03-171 from the Gray group as a positive control (FIG. 5).

BTK-Hibit [2] = target: T4, BTK-Hibit (Homo sapiens, UniProt Q06187); test: BTK degradation in BTK-Hibit knock-in Ramos cells; assay type: cell-based; conditions: 24 hours
T4 construct: endogenous in cells; host or cells: Ramos (BTK-Hibit knock-in)
T4 sequence (Q06187 2-659 limits assumed): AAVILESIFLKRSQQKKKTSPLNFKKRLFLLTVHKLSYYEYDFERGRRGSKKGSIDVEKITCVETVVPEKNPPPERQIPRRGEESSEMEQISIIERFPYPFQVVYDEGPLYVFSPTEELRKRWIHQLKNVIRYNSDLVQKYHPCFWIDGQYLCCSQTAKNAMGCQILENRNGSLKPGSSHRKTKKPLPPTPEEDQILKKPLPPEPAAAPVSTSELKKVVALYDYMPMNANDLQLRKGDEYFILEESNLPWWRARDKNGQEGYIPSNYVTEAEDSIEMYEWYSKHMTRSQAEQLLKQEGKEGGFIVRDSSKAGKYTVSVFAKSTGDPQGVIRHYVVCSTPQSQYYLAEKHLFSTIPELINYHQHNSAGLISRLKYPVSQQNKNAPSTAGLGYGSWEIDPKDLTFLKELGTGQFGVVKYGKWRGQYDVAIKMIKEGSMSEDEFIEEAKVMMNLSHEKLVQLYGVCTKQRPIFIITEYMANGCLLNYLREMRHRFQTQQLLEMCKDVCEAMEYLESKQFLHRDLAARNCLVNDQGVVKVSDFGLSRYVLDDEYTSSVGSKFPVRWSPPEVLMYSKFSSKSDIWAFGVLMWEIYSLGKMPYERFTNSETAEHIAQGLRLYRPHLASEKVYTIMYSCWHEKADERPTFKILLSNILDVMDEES
T4 sequence (Q96SW2 whole entry, further chain): as the sequence (Q96SW2 whole entry) above
T4 sequence (Q16531 whole entry partner): as the sequence (Q16531 whole entry partner) above
Protocol: (§6) Ramos cells were treated with the indicated compounds at the indicated concentrations for 24 hours. Nurix and DD-03-171 were used as the controls.
(§7) To further illustrate the BTK degradation ability of PS-2, BTK-Hibit knock-in Ramos cells were treated with PS-2 for 24 hours, using Nurix and DD-03171 as controls (FIG. 6).

BTK-Hibit [3] = target: T5, BTK-Hibit (Homo sapiens, UniProt Q06187+Q96SW2); test: BTK degradation in BTK-Hibit knock-in Ramos cells; assay type: cell-based; conditions: 24 hours
T5 construct: endogenous in cells; host or cells: Ramos (BTK-Hibit knock-in)
T5 sequence (Q06187 2-659 limits assumed): as the sequence (Q06187 2-659 limits assumed) above
T5 sequence (Q96SW2 whole entry): as the sequence (Q96SW2 whole entry) above
T5 sequence (Q16531 whole entry partner): as the sequence (Q16531 whole entry partner) above
Protocol: as §6, §7

Mino cells = test: cells; conditions: Homo sapiens, 72 h, read-out: IC50, cell growth inhibition / cell viability, Mino cells, 72 h
Description: The cell viabilities were quantified using an Alarma Blue assay.
Dataset represents an average of n=3 replicates.

BTK [4] = target: T6, BTK (Homo sapiens, UniProt Q06187); test: TMT-based quantitative proteomics in Mino cells, BTK; assay type: cell-based; parameters: host or cells: Mino; conditions: 200 nM, 4 h
T6 sequence (Q06187 whole entry): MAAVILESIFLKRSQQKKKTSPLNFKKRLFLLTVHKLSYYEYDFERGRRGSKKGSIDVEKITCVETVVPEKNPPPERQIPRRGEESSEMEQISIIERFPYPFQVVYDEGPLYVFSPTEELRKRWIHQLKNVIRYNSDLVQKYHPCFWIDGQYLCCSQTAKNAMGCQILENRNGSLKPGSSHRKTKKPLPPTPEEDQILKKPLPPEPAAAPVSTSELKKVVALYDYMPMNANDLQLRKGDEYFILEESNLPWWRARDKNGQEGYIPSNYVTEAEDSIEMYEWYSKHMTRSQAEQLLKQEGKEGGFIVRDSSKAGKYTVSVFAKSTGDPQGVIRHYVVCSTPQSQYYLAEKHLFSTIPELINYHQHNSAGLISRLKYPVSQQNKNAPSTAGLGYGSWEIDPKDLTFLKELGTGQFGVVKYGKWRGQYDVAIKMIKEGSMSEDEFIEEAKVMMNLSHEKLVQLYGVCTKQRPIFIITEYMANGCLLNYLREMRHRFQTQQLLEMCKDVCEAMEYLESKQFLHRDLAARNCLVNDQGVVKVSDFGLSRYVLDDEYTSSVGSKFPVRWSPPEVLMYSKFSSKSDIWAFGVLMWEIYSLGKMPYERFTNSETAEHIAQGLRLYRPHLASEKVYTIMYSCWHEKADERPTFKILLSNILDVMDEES
Protocol: as §1, §2, §3

BTK [5] = target: T6, BTK; test: Western blotting for BTK in Ramos cells; assay type: cell-based; parameters: host or cells: Ramos; conditions: Ramos cells, 40, 200 and 1000 nM, 24 h, Western blot
Protocol: as §4, §5

BTK [6] = target: T6, BTK; test: BTK ligand competition assay in Ramos cells (Western blotting for BTK); assay type: cell-based; parameters: host or cells: Ramos; conditions: 100 nM, 24 hours, Western blot
Protocol: Ramos cells were incubated overnight, and then the indicated compounds were added and incubated for 24 hours, followed by Western blotting for BTK degradation.
Ramos cells were incubated overnight, and then the indicated compounds were added and incubated for 24 hours, followed by Western blotting for BTK degradation (FIG. 7).

T1 sequence (Q06187 whole entry): as above

O=C1CCC(N2C(=O)c3cccc(NCC(=O)N4CCN(c5ccc(Nc6nccc(Oc7ccccc7)n6)cc5)CC4)c3C2=O)C(=O)N1 (stereo not drawn) [PS-2, 2-(2,6-Dioxopiperidin-3-yl)-4-((2-oxo-2-(4-(4-((4-phenoxypyrimidin-2-yl)amino)phenyl)piperazin-1-yl)ethyl)amino)isoindoline-1,3-dione]
binding to BTK (result in words) (His-BTK): almost no binding to BTK | degradation of IKZF3 (IKZF3): > 60% | BTK degradation (result in words) (BTK [1]): potent BTK degradation | DC50 (BTK-Hibit [2]): 3.75 nM | Dmax (BTK-Hibit [3]): 84.7% | IC50 (Mino cells): 77 nM | BTK protein level change (BTK [4]): downregulated | BTK degradation (result in words) (BTK [5]): potent BTK degradation | BTK degradation at 100 nM (BTK [6]): Most BTK protein was degraded
